# Reference: ChEMBL document CHEMBL1143801, “Synthesis, SAR and antibacterial studies on novel chalcone oxazolidinone hybrids” (2007)
# What was measured:
# Assay type in all cases: functional
# Enterococcus faecalis [1] = experiment: Antibacterial activity against Enterococcus faecalis NCTC 12201
# Staphylococcus aureus [2] = experiment: Antibacterial activity against Staphylococcus aureus ATCC 29213
# Enterococcus faecium = experiment: Antibacterial activity against Enterococcus faecium ATCC 12202
# Enterococcus faecalis [3] = experiment: Antibacterial activity against Enterococcus faecalis ATCC 29212
# Staphylococcus aureus [4] = experiment: Antibacterial activity against Staphylococcus aureus ATCC 33591
# Staphylococcus aureus [5] = experiment: Antibacterial activity against Staphylococcus aureus ATCC 49951
smiles,measurement,setting,value
COc1ccc(C(=O)/C=C/c2ccc(N3C[C@H](CNC(C)=O)OC3=O)cc2)cc1,MIC,Enterococcus faecalis [1],> 32 µg/mL
same,MIC,Staphylococcus aureus [2],> 32 µg/mL
same,MIC,Enterococcus faecium,> 32 µg/mL
same,MIC,Enterococcus faecalis [3],> 32 µg/mL
same,MIC,Staphylococcus aureus [4],> 32 µg/mL
same,MIC,Staphylococcus aureus [5],> 32 µg/mL
CC(=O)NC[C@H]1CN(c2ccc(C(=O)/C=C/c3ccccn3)c(F)c2)C(=O)O1,MIC,Enterococcus faecalis [1],16 µg/mL
same,MIC,Staphylococcus aureus [2],8 µg/mL
same,MIC,Enterococcus faecium,16 µg/mL
same,MIC,Enterococcus faecalis [3],16 µg/mL
same,MIC,Staphylococcus aureus [4],4 µg/mL
same,MIC,Staphylococcus aureus [5],4 µg/mL
COc1ccc(/C=C/C(=O)c2ccc(N3C[C@H](CNC(C)=O)OC3=O)cc2)cc1OC,MIC,Enterococcus faecalis [1],> 32 µg/mL
same,MIC,Staphylococcus aureus [2],> 32 µg/mL
same,MIC,Enterococcus faecium,> 32 µg/mL
same,MIC,Enterococcus faecalis [3],> 32 µg/mL
same,MIC,Staphylococcus aureus [4],> 32 µg/mL
same,MIC,Staphylococcus aureus [5],> 32 µg/mL
COC(=O)c1ccc(/C=C/C(=O)c2ccc(N3C[C@H](CNC(C)=O)OC3=O)cc2)cc1,MIC,Enterococcus faecalis [1],> 32 µg/mL
same,MIC,Staphylococcus aureus [2],> 32 µg/mL
same,MIC,Enterococcus faecium,> 32 µg/mL
same,MIC,Enterococcus faecalis [3],> 32 µg/mL
same,MIC,Staphylococcus aureus [4],> 32 µg/mL
same,MIC,Staphylococcus aureus [5],> 32 µg/mL
COC(=S)NC[C@H]1CN(c2ccc(C(=O)/C=C/c3ccccn3)c(F)c2)C(=O)O1,MIC,Enterococcus faecalis [1],1 µg/mL
same,MIC,Staphylococcus aureus [2],0.5 µg/mL
same,MIC,Enterococcus faecium,2 µg/mL
same,MIC,Enterococcus faecalis [3],2 µg/mL
same,MIC,Staphylococcus aureus [4],0.25 µg/mL
same,MIC,Staphylococcus aureus [5],1 µg/mL
CC(=O)NC[C@H]1CN(c2ccc(/C=C/C(=O)c3cccc(F)c3)cc2)C(=O)O1,MIC,Enterococcus faecalis [1],> 64 µg/mL
same,MIC,Staphylococcus aureus [2],> 64 µg/mL
same,MIC,Enterococcus faecium,> 64 µg/mL
same,MIC,Enterococcus faecalis [3],> 64 µg/mL
same,MIC,Staphylococcus aureus [4],64 µg/mL
same,MIC,Staphylococcus aureus [5],> 64 µg/mL
CC(=O)NC[C@H]1CN(c2ccc(C(=O)/C=C/c3ccco3)c(F)c2)C(=O)O1,MIC,Enterococcus faecalis [1],16 µg/mL
same,MIC,Staphylococcus aureus [2],8 µg/mL
same,MIC,Enterococcus faecium,16 µg/mL
same,MIC,Enterococcus faecalis [3],16 µg/mL
same,MIC,Staphylococcus aureus [4],8 µg/mL
same,MIC,Staphylococcus aureus [5],8 µg/mL
CC(=O)NC[C@H]1CN(c2ccc(C(=O)/C=C/c3cccs3)c(F)c2)C(=O)O1,MIC,Enterococcus faecalis [1],32 µg/mL
same,MIC,Staphylococcus aureus [2],32 µg/mL
same,MIC,Enterococcus faecium,32 µg/mL
same,MIC,Enterococcus faecalis [3],32 µg/mL
same,MIC,Staphylococcus aureus [4],32 µg/mL
same,MIC,Staphylococcus aureus [5],32 µg/mL
CN[C@H](CC(C)C)C(=O)N[C@H]1C(=O)N[C@@H](CC(N)=O)C(=O)N[C@H]2C(=O)N[C@H]3C(=O)N[C@H](C(=O)N[C@H](C(=O)O)c4cc(O)cc(O)c4-c4cc3ccc4O)[C@H](O)c3ccc(c(Cl)c3)Oc3cc2cc(c3O[C@@H]2O[C@H](CO)[C@@H](O)[C@H](O)[C@H]2O[C@H]2C[C@](C)(N)[C@H](O)[C@H](C)O2)Oc2ccc(cc2Cl)[C@H]1O [VANCOMYCIN],MIC,Enterococcus faecalis [1],> 32 µg/mL
same,MIC,Enterococcus faecium,> 32 µg/mL
same,MIC,Enterococcus faecalis [3],2 µg/mL
CC(=O)NC[C@H]1CN(c2ccc(/C=C/C(=O)c3ccc([N+](=O)[O-])cc3)cc2)C(=O)O1,MIC,Enterococcus faecalis [1],32 µg/mL
same,MIC,Staphylococcus aureus [2],32 µg/mL
same,MIC,Enterococcus faecium,32 µg/mL
same,MIC,Enterococcus faecalis [3],32 µg/mL
same,MIC,Staphylococcus aureus [4],32 µg/mL
same,MIC,Staphylococcus aureus [5],32 µg/mL
CC(=O)NC[C@H]1CN(c2ccc(C(=O)/C=C/c3ccc(F)cc3)cc2)C(=O)O1,MIC,Enterococcus faecalis [1],> 32 µg/mL
same,MIC,Staphylococcus aureus [2],> 32 µg/mL
same,MIC,Enterococcus faecium,> 32 µg/mL
same,MIC,Enterococcus faecalis [3],> 32 µg/mL
same,MIC,Staphylococcus aureus [4],> 32 µg/mL
same,MIC,Staphylococcus aureus [5],> 32 µg/mL
CC(=O)NC[C@H]1CN(c2ccc(C(=O)/C=C/c3nccn3C)c(F)c2)C(=O)O1,MIC,Enterococcus faecalis [1],32 µg/mL
same,MIC,Staphylococcus aureus [2],32 µg/mL
same,MIC,Enterococcus faecium,32 µg/mL
same,MIC,Enterococcus faecalis [3],32 µg/mL
same,MIC,Staphylococcus aureus [4],32 µg/mL
same,MIC,Staphylococcus aureus [5],32 µg/mL
COc1cc(/C=C/C(=O)c2ccc(N3C[C@H](CNC(C)=O)OC3=O)cc2)cc(OC)c1OC,MIC,Enterococcus faecalis [1],> 32 µg/mL
same,MIC,Staphylococcus aureus [2],> 32 µg/mL
same,MIC,Enterococcus faecium,> 32 µg/mL
same,MIC,Enterococcus faecalis [3],> 32 µg/mL
same,MIC,Staphylococcus aureus [4],> 32 µg/mL
same,MIC,Staphylococcus aureus [5],> 32 µg/mL
CC(=O)NC[C@H]1CN(c2ccc(C(=O)/C=C/c3ncc[nH]3)c(F)c2)C(=O)O1,MIC,Enterococcus faecalis [1],16 µg/mL
same,MIC,Staphylococcus aureus [2],16 µg/mL
same,MIC,Enterococcus faecium,16 µg/mL
same,MIC,Enterococcus faecalis [3],16 µg/mL
same,MIC,Staphylococcus aureus [4],16 µg/mL
same,MIC,Staphylococcus aureus [5],16 µg/mL
CC(=O)NC[C@H]1CN(c2ccc(/C=C/C(=O)c3ccccc3)cc2)C(=O)O1,MIC,Enterococcus faecalis [1],> 32 µg/mL
same,MIC,Staphylococcus aureus [2],> 32 µg/mL
same,MIC,Enterococcus faecium,> 32 µg/mL
same,MIC,Enterococcus faecalis [3],> 32 µg/mL
same,MIC,Staphylococcus aureus [4],> 32 µg/mL
same,MIC,Staphylococcus aureus [5],> 32 µg/mL
CC(=O)NC[C@H]1CN(c2ccc(/C=C/C(=O)c3ccc(C)cc3)cc2)C(=O)O1,MIC,Enterococcus faecalis [1],32 µg/mL
same,MIC,Staphylococcus aureus [2],> 32 µg/mL
same,MIC,Enterococcus faecium,32 µg/mL
same,MIC,Enterococcus faecalis [3],32 µg/mL
same,MIC,Staphylococcus aureus [4],32 µg/mL
same,MIC,Staphylococcus aureus [5],32 µg/mL
CC(=O)NC[C@H]1CN(c2ccc(C(=O)/C=C/c3ccccn3)cc2)C(=O)O1,MIC,Enterococcus faecalis [1],64 µg/mL
same,MIC,Staphylococcus aureus [2],32 µg/mL
same,MIC,Enterococcus faecium,64 µg/mL
same,MIC,Enterococcus faecalis [3],64 µg/mL
same,MIC,Staphylococcus aureus [4],32 µg/mL
same,MIC,Staphylococcus aureus [5],32 µg/mL
CC(=O)NC[C@H]1CN(c2ccc(/C=C/C(=O)c3c(F)cc(Cl)cc3Cl)cc2)C(=O)O1,MIC,Enterococcus faecalis [1],> 32 µg/mL
same,MIC,Staphylococcus aureus [2],> 32 µg/mL
same,MIC,Enterococcus faecium,> 32 µg/mL
same,MIC,Enterococcus faecalis [3],> 32 µg/mL
same,MIC,Staphylococcus aureus [4],> 32 µg/mL
same,MIC,Staphylococcus aureus [5],> 32 µg/mL
CC(=O)NC[C@H]1CN(c2ccc(N3CCOCC3)c(F)c2)C(=O)O1 [LINEZOLID],MIC,Enterococcus faecium,2 µg/mL
same,MIC,Staphylococcus aureus [4],1 µg/mL
CC(=O)NC[C@H]1CN(c2ccc(C(=O)/C=C/c3ccccc3)cc2)C(=O)O1,MIC,Enterococcus faecalis [1],> 32 µg/mL
same,MIC,Staphylococcus aureus [2],> 32 µg/mL
same,MIC,Enterococcus faecium,> 32 µg/mL
same,MIC,Enterococcus faecalis [3],> 32 µg/mL
same,MIC,Staphylococcus aureus [4],> 32 µg/mL
same,MIC,Staphylococcus aureus [5],> 32 µg/mL
CC(=O)NC[C@H]1CN(c2ccc(C(=O)/C=C/c3ccco3)cc2)C(=O)O1,MIC,Enterococcus faecalis [1],32 µg/mL
same,MIC,Staphylococcus aureus [2],16 µg/mL
same,MIC,Enterococcus faecium,32 µg/mL
same,MIC,Enterococcus faecalis [3],32 µg/mL
same,MIC,Staphylococcus aureus [4],32 µg/mL
same,MIC,Staphylococcus aureus [5],16 µg/mL
